Laboratory results from PubChem BioAssay AID1918954 (Molecular Pharmacology Branch, DTP, NCI, 2023).
Where “and” joins values, the source holds several entries; their conditions need not be identical. Identical values can stand only once.

System: MDA-MB-468 complex spheroids with HUVEC/MSC, viability
Assay: Anticancer human tumor MDA-MB-468 cell line growth inhibition;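 further: spheroids exposed to agents for seven days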;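 on viability, T/C: 100% = DMSO vehicle control viability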
Conditions: for viability, T/C: stronger effect = lower value
From the text: Multicellular complex tumor spheroid response to LSD1 Inhibitor Iadademstat in combination with a variety of drugs and investigational agents in selected tumor cell lines
The current study was undertaken to assess response to LSD1 inhibitors in combination with standard-of-care drugs and investigational agents in solid tumor complex spheroid models as well as in the K-562 leukemia. Complex spheroids include a stromal component modeled by human endothelial cells (HUVEC) and fibroblasts modeled by human mesenchymal stem cells (MSCs). The concentration ranges selected for each drug and investigational agent were based upon clinically achievable concentrations if the clinical Cmax of the agent was known.
Compounds. The drugs and investigational agents used in this study are listed on Table 1. All of the agents used, including staurosporine (NSC755774) and gemcitabine (NSC613327), were obtained from the Developmental Therapeutics Program, NCI. FDA-approved anticancer drugs are available from the NCI at http://dtp.nci.nih.gov/branches/dscb/oncology_drugset_explanation.html. Drugs and investigational agents were >95% pure by proton nuclear magnetic resonance (NMR) and liquid chromatography/mass spectrometry (LC/MS). Stock solutions were prepared at 400x in DMSO, stored at -70 degrees C, and diluted in fresh medium prior to their use. The final concentration of DMSO in cell culture wells never exceeded 0.25% (v/v). The FDA-approved anticancer drug set is available from the Developmental Therapeutics Program at https://dtp.cancer.gov/organization/dscb/obtaining/available_plates.htm. All drugs and investigational agents were tested over a range starting from a high concentration at or near the clinical Cmax and decreasing in half-log increments. If the clinical Cmax for an agent had not been determined, the highest concentration tested was 10 microM.
Cell Lines. The patient-derived cancer cell (PDC) lines: 292921-168-R-J2-PDC, K24384-001-R-PDC, and 521955-158-R2-J5-PDC pancreatic carcinomas, 556581-035-R-J1 ovarian carcinoma, 324938-238-R-J1-PDC, 855422-203-R-J1-PDC and 883617-216-R-J1-PDC urothelial bladder carcinomas, 743489-274-T-PDC renal cell carcinoma, 138582-R-J1 Merkel cell tumor, K60290-347-R-J1 and K57222-313-R-J1-PDC glioblastomas, 653999-131-R-J2-PDC, LG0703-F948-PDC, and 349418-098-R-PDC non-small cell lung carcinomas, 885512-296-R-J2-PDC, 171881-019-R-J1-PDC breast carcinomas and 186277-243-T-J2-PDC and 233499-124-R-J2-PDC colon carcinomas were obtained from the NCI Patient-Derived Models Repository (PDMR, https://pdmr.cancer.gov). The established cell lines NCI/ADR-RES (RRID:CVCL_14520 and OVCAR-5 (RRID:CVCL_1628) ovarian carcinomas, 786-O (RRID:CVCL_1051) and A498 (RRID:CVCL_A498) renal cell carcinoma, NCI-H211 (ATCC, cat. CRL-5824; RRID:CVCL_1529), NCI-H196 (ATCC, cat. CRL-5823, RRID:CVCL_1509), SW 1271 (ATCC, cat. CRL-2177, RRID:CVCL_1716) and NCI-H1876 (ATCC, cat. CRL-5902, RRID:CVCL_1503) small cell lung carcinomas, MDA-MB-231 (RRID:CVCL_0062) and MDA-MB-468 (RRID:CVCL_0419)breast carcinomas (10-12). Pooled donor human umbilical vein endothelial cells (HUVEC, Lonza, cat. CC-2519) and human mesenchymal stem cells (hMSC, Lonza, cat. PT-2501) were purchased from Lonza (Walkersville, MD).
Cell Culture. All cells were maintained in an incubator at 37 degrees C and 5% CO2 with 95% humidity. The PDC lines were cultured according to standard operating procedures established by the NCI PDMR (https://pdmr.cancer.gov). Briefly all PDCs were thawed and cultured in Matrigel-coated flasks prepared with a working solution of 1X Ham's F-12 nutrient mix, without supplementation (Invitrogen, Waltham, MA, cat. 11765054), 100 U/mL penicillin-streptomycin (Invitrogen, cat. 15140122), and 2.5% Matrigel (Corning Inc., Corning, NY, cat. 354248) for the first three passages. […]

[1] = curve of first compound, second compound 0.1 µM
[2] = curve of first compound, second compound 0.316 µM
[3] = curve of first compound, second compound 1 µM
[4] = curve of first compound, second compound 3.16 µM
[5] = curve of first compound, second compound 10 µM

COc1cc(C2c3cc4c(cc3C(OC3OC5COC(C)OC5C(O)C3O)C3COC(=O)C23)OCO4)cc(OC)c1O (configuration not stated) + NC1CC1c1ccc(-c2cccc(O)c2)cc1
IC50 [1]: 57.7 nM
IC50 [2]: 50.8 nM
IC50 [3]: 45.5 nM
IC50 [4]: 47.2 nM
IC50 [5]: 21 nM
viability, T/C (second compound 0.1 µM, first compound 0.00949 µM): 88.3%
viability, T/C (second compound 0.1 µM, first compound 0.03 µM): 79.1%
viability, T/C (second compound 0.1 µM, first compound 0.0949 µM): 27.5%
viability, T/C (second compound 0.1 µM, first compound 0.3 µM): 13%
viability, T/C (second compound 0.1 µM, first compound 0.949 µM): 7.49%
viability, T/C (second compound 0.1 µM, first compound 3 µM): 3.87%
viability, T/C (second compound 0.316 µM, first compound 0.00949 µM): 107%
viability, T/C (second compound 0.316 µM, first compound 0.03 µM): 69.9%
viability, T/C (second compound 0.316 µM, first compound 0.0949 µM): 26%
viability, T/C (second compound 0.316 µM, first compound 0.3 µM): 11.5%
viability, T/C (second compound 0.316 µM, first compound 0.949 µM): 7.32%
viability, T/C (second compound 0.316 µM, first compound 3 µM): 3.63%
viability, T/C (second compound 1 µM, first compound 0.00949 µM): 90%
viability, T/C (second compound 1 µM, first compound 0.03 µM): 64.2%
viability, T/C (second compound 1 µM, first compound 0.0949 µM): 24.7%
viability, T/C (second compound 1 µM, first compound 0.3 µM): 11.3%
viability, T/C (second compound 1 µM, first compound 0.949 µM): 6.82%
viability, T/C (second compound 1 µM, first compound 3 µM): 3.4%
viability, T/C (second compound 3.16 µM, first compound 0.00949 µM): 89.8%
viability, T/C (second compound 3.16 µM, first compound 0.03 µM): 68.7%
viability, T/C (second compound 3.16 µM, first compound 0.0949 µM): 21%
viability, T/C (second compound 3.16 µM, first compound 0.3 µM): 11%
viability, T/C (second compound 3.16 µM, first compound 0.949 µM): 6.58%
viability, T/C (second compound 3.16 µM, first compound 3 µM): 3.35%
viability, T/C (second compound 10 µM, first compound 0.00949 µM): 68.2%
viability, T/C (second compound 10 µM, first compound 0.03 µM): 42.8%
viability, T/C (second compound 10 µM, first compound 0.0949 µM): 15.8%
viability, T/C (second compound 10 µM, first compound 0.3 µM): 14.5%
viability, T/C (second compound 10 µM, first compound 0.949 µM): 8.05%
viability, T/C (second compound 10 µM, first compound 3 µM): 3.42%

Nc1ncn(C2CC(O)C(CO)S2)c(=O)n1 (configuration not stated)
viability, T/C (compound 0.000949 µM): 79.6% and 100%
viability, T/C (compound 0.003 µM): 74.9% and 93.2%
viability, T/C (compound 0.00949 µM): 75.2% and 70.6%
viability, T/C (compound 0.03 µM): 73.4% and 52%
viability, T/C (compound 0.0949 µM): 53.9% and 36.5%
viability, T/C (compound 0.3 µM): 34.9% and 20.4%
IC50 (curve of compound): 120 nM and 35.5 nM

CC1COCCN1c1cc(C2(S(C)(=N)=O)CC2)nc(-c2ccnc3[nH]ccc23)n1 (configuration not stated) + NC1CCC(NC2CC2c2ccccc2)CC1
IC50 [1]: 330 nM
IC50 [2]: 450 nM
IC50 [3]: 326 nM
IC50 [4]: 394 nM
IC50 [5]: 221 nM
viability, T/C (second compound 0.1 µM, first compound 0.0316 µM): 103%
viability, T/C (second compound 0.1 µM, first compound 0.1 µM): 73.1%
viability, T/C (second compound 0.1 µM, first compound 0.316 µM): 49.5%
viability, T/C (second compound 0.1 µM, first compound 1 µM): 34.9%
viability, T/C (second compound 0.1 µM, first compound 3.16 µM): 21.3%
viability, T/C (second compound 0.1 µM, first compound 10 µM): 10.2%
viability, T/C (second compound 0.316 µM, first compound 0.0316 µM): 76.9%
viability, T/C (second compound 0.316 µM, first compound 0.1 µM): 72.2%
viability, T/C (second compound 0.316 µM, first compound 0.316 µM): 55.8%
viability, T/C (second compound 0.316 µM, first compound 1 µM): 35.1%
viability, T/C (second compound 0.316 µM, first compound 3.16 µM): 21.2%
viability, T/C (second compound 0.316 µM, first compound 10 µM): 10.6%
viability, T/C (second compound 1 µM, first compound 0.0316 µM): 74.1%
viability, T/C (second compound 1 µM, first compound 0.1 µM): 71%
viability, T/C (second compound 1 µM, first compound 0.316 µM): 45.4%
viability, T/C (second compound 1 µM, first compound 1 µM): 34.4%
viability, T/C (second compound 1 µM, first compound 3.16 µM): 25.8%
viability, T/C (second compound 1 µM, first compound 10 µM): 11.3%
viability, T/C (second compound 3.16 µM, first compound 0.0316 µM): 75.5%
viability, T/C (second compound 3.16 µM, first compound 0.1 µM): 74.6%
viability, T/C (second compound 3.16 µM, first compound 0.316 µM): 48.9%
viability, T/C (second compound 3.16 µM, first compound 1 µM): 36.7%
viability, T/C (second compound 3.16 µM, first compound 3.16 µM): 21.2%
viability, T/C (second compound 3.16 µM, first compound 10 µM): 12.4%
viability, T/C (second compound 10 µM, first compound 0.0316 µM): 63.9%
viability, T/C (second compound 10 µM, first compound 0.1 µM): 54.7%
viability, T/C (second compound 10 µM, first compound 0.316 µM): 48.2%
viability, T/C (second compound 10 µM, first compound 1 µM): 35.2%
viability, T/C (second compound 10 µM, first compound 3.16 µM): 21.1%
viability, T/C (second compound 10 µM, first compound 10 µM): 8.95%
